How the values were obtained:
[1] = xn = mol fraction of the nth substance listed; conditions: 99.6 kPa, Liquid, x1 = 0.5; for viscosity: Concentric cylinders viscometry; for mass density: Vibrating tube method
[2] = refractive index (Na D-line) (dimensionless); xn = mol fraction of the nth substance listed; conditions: 293.15 K; 99.6 kPa; Liquid; Standard Abbe refractometry; x1 = 0.5

CCCCn1cc[n+](C)c1.CS(=O)(=O)[O-] [1-butyl-3-methylimidazolium methanesulfonate] + NC(N)=O
[1]
Conditions | mass density [kg/m3] | viscosity [mPa·s]
293.15 K | 1202.2 | 1892.9
303.15 K | 1195.6 | 686.69
313.15 K | 1189.2 | 295.72
323.15 K | 1182.7 | 145.85
333.15 K | 1176.3 | 80.41

Conditions | refractive index
[2] | 1.493

Source: the NIST ThermoML archive (doi:10.1021/acs.jced.7b01004)
